The test system of one experiment is mouse GPR84. Further details: method as in PMID 16966319. As to conditions: cited from earlier work.
The target of experiment [1] is T1, ciGPR84 (Ctenopharyngodon idella, UniProt A0A8K1PH93). The experiment can be described thus: pGL4.29 (CRE) luciferase reporter assay, inhibition of forskolin-induced cAMP signaling in HEK293T cells transfected with ciGPR84. It is filed as cell-based, grass carp (Ctenopharyngodon idella). As to conditions: HEK293T co-transfected with pciGPR84 and pGL4.29, 5 μM forskolin, 6 h treatment; for IC50: read-out: IC50 (half-maximal inhibitory concentration) on cAMP through ciGPR84. The method, then: (§1) Human embryonic kidney cells HEK293T obtained from Beyotime Biotechnology (Shanghai, China) were cultured with Dulbecco’s Modified Eagle Medium (DMEM) containing a 10% fetal bovine serum in an incubator (37 °C and 5% CO2 humidified atmosphere). The cells were plated into 24-well plates and cultured for 24 h before assays. The Countess 3 cell counter (Invitrogen, Waltham, MA, USA) was used for cell counting.
T1 sequence (A0A8K1PH93 entry or part of it): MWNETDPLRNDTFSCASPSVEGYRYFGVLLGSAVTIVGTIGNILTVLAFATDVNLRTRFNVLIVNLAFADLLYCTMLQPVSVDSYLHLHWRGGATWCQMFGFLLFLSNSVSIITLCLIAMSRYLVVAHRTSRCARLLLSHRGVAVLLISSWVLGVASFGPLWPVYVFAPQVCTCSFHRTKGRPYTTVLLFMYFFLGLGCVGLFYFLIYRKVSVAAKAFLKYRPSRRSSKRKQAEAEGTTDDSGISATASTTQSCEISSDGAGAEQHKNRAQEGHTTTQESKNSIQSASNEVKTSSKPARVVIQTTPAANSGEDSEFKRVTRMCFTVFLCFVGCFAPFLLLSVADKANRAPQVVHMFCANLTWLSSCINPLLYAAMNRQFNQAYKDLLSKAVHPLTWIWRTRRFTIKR
(§2) The functionality of ciGPR84 was assessed using our established method. Specifically, the coding sequence (CDS) of ciGPR84 was subcloned into the pcDNA3.1 (+) vector (Invitrogen, Carlsbad, CA, USA), resulting in the construction of pcDNA3.1-ciGPR84 (pciGPR84). HEK293T cells were co-transfected with pciGPR84 (or pcDNA3.1 empty vector), two luciferase reporter vectors (pGL4.29 and pGL4.33) containing a cAMP response element (CRE) and serum response element (SRE), respectively, and pEGFP-N1 (as an internal control for transfection normalization) in a mixture with polyethyleneimine (PEI) transfection reagent (Fusheng Biotechnology, Shanghai, China). The cells were then incubated in the original medium for 24 h, transferred to a 48-well plate, and grown for an additional 24 h to reach a cell density of 2 × 10^5 cells per well. […] It is important to note that due to the anticipated inhibitory effect of MCFA on the intracellular cAMP, 5 μM forskolin was added to all wells transfected with pGL4.29 to pre-activate the cellular adenylyl cyclase.
(§3) After the treatment, cells were lysed with 1 × passive lysis buffer (Beyotime Biotechnology, Shanghai, China), and a luciferase substrate was added to initiate a glow-generating reaction. The luminescence signals were measured using a Tecan F200 (Tecan, Männedorf, Switzerland) microplate reader to determine the relative luciferase activity in each well. Three independent experiments were performed for each agonist concentration (n = 3), and the data were presented as a mean ± SEM.
(§4) A data analysis was performed using GraphPad Prism 7 software (GraphPad Software, San Diego, CA, USA).
Background: Reporter assays use an easily measured gene product as a stand-in for the process of interest.

Experiment [2] concerns the target T1, ciGPR84. The experiment is described as follows: pGL4.33 (SRE) luciferase reporter assay, activation of ERK signaling in HEK293T cells transfected with ciGPR84. It is filed as cell-based, grass carp (Ctenopharyngodon idella). The following applies: HEK293T co-transfected with ciGPR84 and pGL4.33 (SRE-luciferase), 6 h treatment; for EC50: read-out: EC50 for activation of ERK signaling through ciGPR84. The method, then: as §1, §2, §3, §4

In the case of `CCCCCCCCC(=O)O` [nonanoic acid], the half-maximal effective concentration (EC50) – broadly, the concentration at which the effect is half-maximal – in the experiment on mouse GPR84 is 52 µM. In the case of `CCCCCCCCCC(=O)O` [capric acid], the EC50 with mouse GPR84 is 4 µM.

Take `CCCCCCCCCCC(=O)O` [undecanoic acid]: the IC50 at ciGPR84 [1] was 1490 µM. Further, on ciGPR84 [2], the concentration for a half-maximal effect (EC50) was determined as 13800 µM. Turning to `c1ccc2c(Cc3c[nH]c4ccccc34)c[nH]c2c1` [DIM, diindolylmethane], at ciGPR84 [1] (DIM 10^−8 to 10^−3), the “inhibition of cAMP generation through ciGPR84” value is reported as “did not lead to the inhibition of cAMP generation”. Moreover, the “activation of ERK signaling through ciGPR84” value at ciGPR84 [2] (DIM 10^−8 to 10^−3) is listed as “did not activate the ERK signaling”.

In the case of `CCCCCCCCCCCC(=O)O` [lauric acid], the IC50 at ciGPR84 [1] stood at 301 µM. The 50% effective concentration (EC50) in the experiment with mouse GPR84 is 9 µM; on ciGPR84 [2] it was 4250 µM.

These data come from PMC10571743, “Molecular Cloning, Tissue Distribution, and Pharmacological Characterization of GPR84 in Grass Carp (Ctenopharyngodon Idella)” (Animals : an Open Access Journal from MDPI, 2023).
